Assays:
[1] = acceleration test (stability); type: physicochemical; conditions: 40° C.±2° C., relative humidity 75%±5%
Procedure: (§1) Stability tests were performed on the samples of Examples 1, 2, 3, 4 and 5. […] Please refer to the results of the acceleration test (40° C.±2° C., relative humidity 75%±5%) of Table 1 and the results of the long-term stability test (25° C.±2° C., relative humidity 60%±10%) of Table 2.

[2] = long-term stability test; type: physicochemical; conditions: 25° C.±2° C., relative humidity 60%±10%
Procedure: as §1

In the case of “(S)-2-(4-fluorophenyl)-4-(piperidine-3-aminomethyl)thieno[2,3-d]pyridazine-7-carboxamide hydrochloride [Example 110601-3]”, the “(%) Impurity B (%)” value ([1]; 0 month) was 0.00%, the Crystal form ([1]; 0 month) was “unchanged” and the appearance ([1]; 0 month) was “yellow crystalline powder”. For the same substance, the “Enantiomer (%)” value ([1]; 0 month, hydrochloride) was 0.09%, the “Impurity A (%)” value ([1]; 0 month, hydrochloride) was 0.28% and the “Impurity C (%)” value ([1]; 0 month, hydrochloride) was 0.02%. The “Loss on drying (%)” value ([1]; 0 month, hydrochloride) was 7.2%, the “Single largest impurity (%)” value ([1]; 0 month, hydrochloride) was 0.01% and the “Total relevant substances (%)” value ([1]; 0 month, hydrochloride) was 0.37%. For the same substance, the “content(%)” value ([1]; 0 month, hydrochloride) was 99.6%, the Crystal form ([1]; 1 month) was “unchanged” and the “Impurity C (%)” value ([1]; 1 month) was 0.02%. For the same substance, the appearance ([1]; 1 month) was “yellow crystalline powder”, the “(%) Impurity B (%)” value ([1]; 1 month, hydrochloride) was 0.03% and the “Enantiomer (%)” value ([1]; 1 month, hydrochloride) was 0.11%. For the same substance, the “Impurity A (%)” value ([1]; 1 month, hydrochloride) was 0.25%, the “Loss on drying (%)” value ([1]; 1 month, hydrochloride) was 7.2% and the “Single largest impurity (%)” value ([1]; 1 month, hydrochloride) was 0.02%. For the same substance, the “Total relevant substances (%)” value ([1]; 1 month, hydrochloride) was 0.39%, the “content(%)” value ([1]; 1 month, hydrochloride) was 100.0% and the Crystal form ([1]; 2 months) was “unchanged”. For the same substance, the appearance ([1]; 2 months) was “yellow crystalline powder”, the “(%) Impurity B (%)” value ([1]; 2 months, hydrochloride) was 0.03% and the “Enantiomer (%)” value ([1]; 2 months, hydrochloride) was 0.1%. The “Impurity A (%)” value ([1]; 2 months, hydrochloride) was 0.26%, the “Impurity C (%)” value ([1]; 2 months, hydrochloride) was 0.02% and the “Loss on drying (%)” value ([1]; 2 months, hydrochloride) was 7.2%. For the same substance, the “Single largest impurity (%)” value ([1]; 2 months, hydrochloride) was 0.03%, the “Total relevant substances (%)” value ([1]; 2 months, hydrochloride) was 0.38% and the “content(%)” value ([1]; 2 months, hydrochloride) was 98.2%. The “(%) Impurity B (%)” value ([1]; 3 months) was 0.00%, the Crystal form ([1]; 3 months) was “unchanged” and the “Impurity C (%)” value ([1]; 3 months) was 0.02%. The appearance ([1]; 3 months) was “yellow crystalline powder”, the “Enantiomer (%)” value ([1]; 3 months, hydrochloride) was 0.09% and the “Impurity A (%)” value ([1]; 3 months, hydrochloride) was 0.25%. For the same substance, the “Loss on drying (%)” value ([1]; 3 months, hydrochloride) was 7.2%, the “Single largest impurity (%)” value ([1]; 3 months, hydrochloride) was 0.02% and the “Total relevant substances (%)” value ([1]; 3 months, hydrochloride) was 0.33%. The “content(%)” value ([1]; 3 months, hydrochloride) was 99.9%, the “(%) Impurity B (%)” value ([1]; 6 months) was 0.00% and the Crystal form ([1]; 6 months) was “unchanged”. For the same substance, the “Impurity C (%)” value ([1]; 6 months) was 0.02%, the appearance ([1]; 6 months) was “yellow crystalline powder” and the “Enantiomer (%)” value ([1]; 6 months, hydrochloride) was 0.08%. The “Impurity A (%)” value ([1]; 6 months, hydrochloride) was 0.21%, the “Loss on drying (%)” value ([1]; 6 months, hydrochloride) was 7.1% and the “Single largest impurity (%)” value ([1]; 6 months, hydrochloride) was 0.02%. The “Total relevant substances (%)” value ([1]; 6 months, hydrochloride) was 0.28%, the “content(%)” value ([1]; 6 months, hydrochloride) was 99.7% and the Crystal form ([2]; 0 month) was “unchanged”. For the same substance, the “ImpurityB(%)” value ([2]; 0 month) was 0.00%, the “Content (calculated by dried product )(%)” value ([2]; 0 month, hydrochloride) was 99.6% and the “Enantiomers (%)” value ([2]; 0 month, hydrochloride) was 0.09%. For the same substance, the “ImpurityA(%)” value ([2]; 0 month, hydrochloride) was 0.28%, the “ImpurityC(%)” value ([2]; 0 month, hydrochloride) was 0.02% and the “Loss on drying (%)” value ([2]; 0 month, hydrochloride) was 7.2%. The “Single largest impurity (%)” value ([2]; 0 month, hydrochloride) was 0.01%, the “Total relevant substances (%)” value ([2]; 0 month, hydrochloride) was 0.37% and the appearance ([2]; 0 month, hydrochloride) was “yellow crystalline powder”. For the same substance, the Crystal form ([2]; 3 months) was “unchanged”, the “ImpurityB(%)” value ([2]; 3 months) was 0.00% and the “ImpurityC(%)” value ([2]; 3 months) was 0.02%. The “Content (calculated by dried product )(%)” value ([2]; 3 months, hydrochloride) was 100.2%, the “Enantiomers (%)” value ([2]; 3 months, hydrochloride) was 0.09% and the “ImpurityA(%)” value ([2]; 3 months, hydrochloride) was 0.26%. For the same substance, the “Loss on drying (%)” value ([2]; 3 months, hydrochloride) was 7.1%, the “Single largest impurity (%)” value ([2]; 3 months, hydrochloride) was 0.03% and the “Total relevant substances (%)” value ([2]; 3 months, hydrochloride) was 0.35%. For the same substance, the appearance ([2]; 3 months, hydrochloride) was “yellow crystalline powder”, the Crystal form ([2]; 6 months) was “unchanged” and the “ImpurityB(%)” value ([2]; 6 months) was 0.00%. The “Content (calculated by dried product )(%)” value ([2]; 6 months, hydrochloride) was 99.6%, the “Enantiomers (%)” value ([2]; 6 months, hydrochloride) was 0.08% and the “ImpurityA(%)” value ([2]; 6 months, hydrochloride) was 0.25%. The “ImpurityC(%)” value ([2]; 6 months, hydrochloride) was 0.02%, the “Loss on drying (%)” value ([2]; 6 months, hydrochloride) was 7.2% and the “Single largest impurity (%)” value ([2]; 6 months, hydrochloride) was 0.03%. For the same substance, the “Total relevant substances (%)” value ([2]; 6 months, hydrochloride) was 0.35%, the appearance ([2]; 6 months, hydrochloride) was “yellow crystalline powder” and the Crystal form ([2]; 9 months) was “unchanged”. The “ImpurityC(%)” value ([2]; 9 months) was 0.02%, the “Content (calculated by dried product )(%)” value ([2]; 9 months, hydrochloride) was 99.5% and the “Enantiomers (%)” value ([2]; 9 months, hydrochloride) was 0.09%. For the same substance, the “ImpurityA(%)” value ([2]; 9 months, hydrochloride) was 0.25%, the “ImpurityB(%)” value ([2]; 9 months, hydrochloride) was 0.01% and the “Loss on drying (%)” value ([2]; 9 months, hydrochloride) was 7.2%. For the same substance, the “Single largest impurity (%)” value ([2]; 9 months, hydrochloride) was 0.02%, the “Total relevant substances (%)” value ([2]; 9 months, hydrochloride) was 0.38% and the appearance ([2]; 9 months, hydrochloride) was “yellow crystalline powder”. For the same substance, the Crystal form ([2]; 12 months) was “unchanged”, the “ImpurityB(%)” value ([2]; 12 months) was 0.01% and the “Single largest impurity (%)” value ([2]; 12 months) was 0.02%. For the same substance, the “Content (calculated by dried product )(%)” value ([2]; 12 months, hydrochloride) was 99.9%, the “Enantiomers (%)” value ([2]; 12 months, hydrochloride) was 0.08% and the “ImpurityA(%)” value ([2]; 12 months, hydrochloride) was 0.25%. The “ImpurityC(%)” value ([2]; 12 months, hydrochloride) was 0.03%, the “Loss on drying (%)” value ([2]; 12 months, hydrochloride) was 7.3% and the “Total relevant substances (%)” value ([2]; 12 months, hydrochloride) was 0.35%. The appearance ([2]; 12 months, hydrochloride) was “yellow crystalline powder”, the Crystal form ([2]; 18 months) was “unchanged” and the “ImpurityB(%)” value ([2]; 18 months) was 0.00%. For the same substance, the “Single largest impurity (%)” value ([2]; 18 months) was 0.02%, the “Content (calculated by dried product )(%)” value ([2]; 18 months, hydrochloride) was 101.1% and the “Enantiomers (%)” value ([2]; 18 months, hydrochloride) was 0.06%. The “ImpurityA(%)” value ([2]; 18 months, hydrochloride) was 0.25%, the “ImpurityC(%)” value ([2]; 18 months, hydrochloride) was 0.03% and the “Loss on drying (%)” value ([2]; 18 months, hydrochloride) was 7.1%. For the same substance, the “Total relevant substances (%)” value ([2]; 18 months, hydrochloride) was 0.31%, the appearance ([2]; 18 months, hydrochloride) was “yellow crystalline powder” and the Crystal form ([2]; 24 months) was “unchanged”. For the same substance, the “Enantiomers (%)” value ([2]; 24 months) was 0.08%, the “ImpurityB(%)” value ([2]; 24 months) was 0.00% and the “ImpurityC(%)” value ([2]; 24 months) was 0.02%. For the same substance, the “Single largest impurity (%)” value ([2]; 24 months) was 0.02%, the “Content (calculated by dried product )(%)” value ([2]; 24 months, hydrochloride) was 98.6% and the “ImpurityA(%)” value ([2]; 24 months, hydrochloride) was 0.25%. For the same substance, the “Loss on drying (%)” value ([2]; 24 months, hydrochloride) was 7.3%, the “Total relevant substances (%)” value ([2]; 24 months, hydrochloride) was 0.34% and the appearance ([2]; 24 months, hydrochloride) was “yellow crystalline powder”. The Crystal form ([2]; 36 months) was “unchanged”, the “ImpurityC(%)” value ([2]; 36 months) was 0.02% and the “Single largest impurity (%)” value ([2]; 36 months) was 0.02%. For the same substance, the “Content (calculated by dried product )(%)” value ([2]; 36 months, hydrochloride) was 99.7%, the “Enantiomers (%)” value ([2]; 36 months, hydrochloride) was 0.06% and the “ImpurityA(%)” value ([2]; 36 months, hydrochloride) was 0.26%. For the same substance, the “ImpurityB(%)” value ([2]; 36 months, hydrochloride) was 0.01%, the “Loss on drying (%)” value ([2]; 36 months, hydrochloride) was 7.0% and the “Total relevant substances (%)” value ([2]; 36 months, hydrochloride) was 0.36%. For the same substance, the appearance ([2]; 36 months, hydrochloride) was “yellow crystalline powder”.

— patent US20230183259A1, “Crystal Form Of Thiofuran Pyridazine Compound, Preparation Method Therefor And Application Thereof” (ZHEJIANG MEDICINE CO., LTD. XINCHANG PHARMACEUTICAL FACTORY, priority 2020, published 2023)
